In PMC7051184, “C9orf72 arginine-rich dipeptide repeat proteins disrupt karyopherin-mediated nuclear import” (eLife, 2020):
Where a SMILES comes first, the peptide text is derived from it.

What was measured:
importin β (KPNB1) = biological target: T1, importin β (KPNB1) (Homo sapiens, UniProt Q14974); assay: Rango FRET detection of importin β-Rango dissociation; assay type: binding; details: DPR 10-mers added to importin β-bound Rango
T1 construct: pET30a 6His-S-Importin β(1-876); 6His (N); S-tag (N); made in house; host or cells: E. coli BL21(DE3)
Protocol: Full-length human importin β was expressed from pET30a-WT importin β (pKW485; [Chi et al., 1997]) at the Protein Expression Laboratory (PEL, National Cancer Institute, Frederick, MD). The transformed BL21DE3 cells were grown at 37°C in an 80L Bioflow 500 bioreactor (New Brunswick Scientific, Edison, NJ) until OD600nm = 0.6, cooled to 22°C and the expression was induced with 0.3 mM IPTG. After 12 hr induction, cells were harvested with the CARR continuous flow centrifuge and lysed in PBS with 10 mM imidazole and 5 mM TCEP with a 110EH Microfluidizer (Microfluidics, Westwood, MA) using 2 passes at 10,000 PSI under chilled conditions. The lysates were flash-frozen in liquid nitrogen and stored at −80°C. After thawing, the lysates were clarified and incubated with HIS-Select HF Nickel Affinity beads. The beads were washed with 10 mM imidazole/PBS and the protein eluted with 200 mM imidazole/PBS before dialysis in XB. The purified importin β was combined with a freshly thawed aliquot of Rango2-α1 (pK188) at 2.5:1 molar ratio ratio (12.5 µM importin β, 5 µM Rango) and supplemented with 3% glycerol. Measurement of Rango fluorescence emission in a spectrometer (see below) was used to verify the FRET-off state of the Rango/importin β mixture before freezing.
The expression of zz-RCC1 was induced at OD600nm = 0.4, followed by incubation at 22°C for 4 hr. The cells were washed with PBS, 10 mM Imidazole, 1 mM MgCl2, 5 mM TCEP, 0.2 mM AEBSF, pH 8.0, and lysed by ice-cold microfluidizer. The clarified lysates were used to isolate the zz-RCC1 proteins on HIS-Select HF Nickel Affinity beads, as described above. Proteins eluted with 0.2M imidazole/PBS were dialyzed in PBS before storage. The zz-RanQ69L (pKW1234; pK1097) was expressed from BL21DE3 cells at PEL in an 80L bioreactor, using conditions described for importin β above, except that expression was induced with 0.3 mM IPTG at 37°C for 3 hr, and lysis was performed in PBS with 10 mM Imidazole, 5 mM TCEP, 2 mM MgCl2, and 1 mM GTP. The lysates were clarified and bound to HIS-Select HF Nickel Affinity beads (Millipore Sigma). […]
FRET assays for DPR-induced dissociation of the importin β-Rango complex were performed using a mix of 5 µM Rango-2/α1 (pK188) and 12.5 µM importin β (pKW485) prepared as described above. […] Peak emissions were recorded at 480 nm (donor) and 535 nm (acceptor) in all samples, and background emission subtracted at the same wavelengths in the blank. The FRET signal was calculated as the ratio of background-subtracted acceptor/donor emissions. The signal detected in the untreated sample (20 nM Rango and 50 nM importin β-only, the lowest FRET), was then subtracted from the resulting values. […]

importin β = assay: Biochemical pulldown (GFP-Trap) for DPR-induced Rango-importin β dissociation; assay type: binding, human; details: increasing concentrations of DPRs
Protocol: GFP-Trap magnetic beads (Chromotek, Planegg-Martinsried, Germany) were washed and resuspended in TTBS. At the end of incubation, 8 µl bead suspension was added to each sample and mixed by rotation for 15 min. The supernatant was removed and beads washed 3 times with TTBS before boiling in 20 µl SDS-PAGE sample buffer with 2% β-mercaptoethanol. Samples were separated by SDS-PAGE and anti-GFP western blot performed as detailed below to detect Rango. After detecting the ECL signal, membranes were stained with Coomassie Brilliant R250 to detect importin β. Background-subtracted signals were determined by Image Lab 6.01 (BioRad) and the Rango ECL signal normalized to the importin β signal within each lane.
Supernatant and pellet fractions (for all 5 DPRs, and control/buffer only) were prepared as in the nuclear transport assays, by adding 100 µM 10mers to 2.5 mg/ml HEK lysate in 100 µL TRB. Supernatants were boiled in Laemmli (BioRad) for 5 min. Pellets were boiled for 15 min followed by sonication in order to fully disperse aggregates for SDS-PAGE. Equal volumes of supernatant and pellet fractions were run on 4–12% Bolt Bis-Tris Plus gels (ThermoFisher), transferred to nitrocellulose membrane using an iBlot2 dry blotting system (ThermoFisher). Protein loading was analyzed by BLOT-Faststain (G-biosciences, St. Louis, MO), according to the manufacterers’ instructions. For immunodetection, membranes were blocked with 5% non-fat milk in TBST and probed by sequential incubation with the primary antibodies as detailed in the table below. Detection was by HRP-conjugated secondary antibodies/chemiluminescence using an ImageQuant LAS 4000 system (GE, Chicago, IL). To permit sequential probing of membranes without stripping, signals were quenched by incubation with prewarmed 30% H20_2 for 20 min ([Sennepin et al., 2009]). Band intensities were measured by ImageQuant software. For pellet vs. supernatant fractions, all were expressed as percent untreated control. For blots in Figure 1E, samples were run on 4–20% SDS PAGE minigels (ThermoFisher) and blotted to PVDF membranes (Immun-Blot PVDF, Bio-Rad) using the Bio-Rad TransBlot Turbo apparatus, and probed as above. The chemiluminescence signal was captured with a Bio-Rad ChemiDoc XRS+ digital imaging system.

[1] = biological target: passive nuclear influx of 40 kD dextran; assay: Passive import assay, 40 kD dextran, permeabilized HeLa; assay type: cell-based, human; details: preincubation 30–60 min, with energy and lysate; imaged 5 min

T1 sequence (Q14974 whole entry): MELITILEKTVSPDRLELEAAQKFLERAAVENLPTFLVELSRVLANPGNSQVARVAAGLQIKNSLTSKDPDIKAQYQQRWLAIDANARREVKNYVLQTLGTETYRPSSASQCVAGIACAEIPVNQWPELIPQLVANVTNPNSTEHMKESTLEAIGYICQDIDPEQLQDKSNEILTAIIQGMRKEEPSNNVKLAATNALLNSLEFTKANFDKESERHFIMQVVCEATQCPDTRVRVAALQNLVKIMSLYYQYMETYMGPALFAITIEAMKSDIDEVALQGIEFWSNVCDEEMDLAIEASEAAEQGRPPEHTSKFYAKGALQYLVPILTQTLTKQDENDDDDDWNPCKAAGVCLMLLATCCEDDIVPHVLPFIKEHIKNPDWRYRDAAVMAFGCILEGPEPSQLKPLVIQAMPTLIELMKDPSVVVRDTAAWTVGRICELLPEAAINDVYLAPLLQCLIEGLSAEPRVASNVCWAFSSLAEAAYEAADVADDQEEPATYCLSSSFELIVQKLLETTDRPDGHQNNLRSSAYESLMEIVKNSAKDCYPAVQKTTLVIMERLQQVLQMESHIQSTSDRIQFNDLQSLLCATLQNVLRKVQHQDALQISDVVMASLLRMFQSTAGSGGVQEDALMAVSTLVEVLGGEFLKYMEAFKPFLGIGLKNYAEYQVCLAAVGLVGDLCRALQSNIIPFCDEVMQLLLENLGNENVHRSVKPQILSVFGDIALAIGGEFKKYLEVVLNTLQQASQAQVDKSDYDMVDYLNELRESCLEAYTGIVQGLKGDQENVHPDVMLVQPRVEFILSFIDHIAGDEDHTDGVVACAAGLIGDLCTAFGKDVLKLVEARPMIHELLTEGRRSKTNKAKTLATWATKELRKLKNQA

Effect on Rango FRET (importin β (KPNB1)) | Displacement of importin β from Rango (GFP nanobody bead co-immunoprecipitation) (importin β) | Effect on passive nuclear influx of 40-kD dextran [1] | Molecule
did not affect Rango FRET | little if any effect | not observed | GA10: Synthetic 10-mer GA dipeptide repeat with C-terminal lysine and cysteine (GAGAGAGAGAGAGAGAGAGAKC)
did not affect Rango FRET | little if any effect | not observed | GPGPGPGPGPGPGPGPGPGPKC [GP10, Synthetic 10-mer GP dipeptide repeat with C-terminal lysine and cysteine]
did not affect Rango FRET | little if any effect | not observed | PA10: Synthetic 10-mer PA dipeptide repeat with C-terminal lysine and cysteine (PAPAPAPAPAPAPAPAPAPAKC)

Molecule | Effect on Rango FRET (importin β (KPNB1)) | Displacement of importin β from Rango (GFP nanobody bead co-immunoprecipitation) (importin β) | Effect on passive nuclear influx of 40-kD dextran [1]
N=C(N)NCCC[C@H](NC(=O)[C@@H]1CCCN1C(=O)[C@H](CCCNC(=N)N)NC(=O)[C@@H]1CCCN1C(=O)[C@H](CCCNC(=N)N)NC(=O)[C@@H]1CCCN1C(=O)[C@H](CCCNC(=N)N)NC(=O)[C@@H]1CCCN1C(=O)[C@H](CCCNC(=N)N)NC(=O)[C@@H]1CCCN1C(=O)[C@H](CCCNC(=N)N)NC(=O)[C@@H]1CCCN1C(=O)[C@H](CCCNC(=N)N)NC(=O)[C@@H]1CCCN1C(=O)[C@H](CCCNC(=N)N)NC(=O)[C@@H]1CCCN1C(=O)[C@H](CCCNC(=N)N)NC(=O)[C@@H]1CCCN1C(=O)[C@H](CCCNC(=N)N)NC(=O)[C@@H]1CCCN1)C(=O)O [PR10] (H-PRPRPRPRPRPRPRPRPRPR-OH; N-terminus and C-terminus assumed) | dose-dependent increase in FRET | dose-dependent displacement of importin β from the sensor | –
